Results: patent US8927571B2, “Pyrido[4,3-B]indoles and methods of use” (Medivation Technologies, Inc., priority 2009, dated 2015)

Tests used:
[1] = biological target: human recombinant histamine H1 receptor (Homo sapiens, UniProt P35367); experiment: Histamine H1 radioligand binding assay ([3H]Pyrilamine); conditions: percent inhibition of specific binding of […] [3H]Pyrilamine; compounds screened at 1 μM or lower
Description: To evaluate in radioligand binding assays the activity of compounds of the invention, human recombinant histamine H1 receptor expressed in Chinese hamster ovary (CHO) cells (De Backer, M. D. et al., Biochem. Biophys. Res. Comm. 197(3):1601, 1993) in a modified Tris-HCl buffer (50 mM Tris-HCl, pH 7.4, 2 mM MgCl2, 100 mM NaCl, 250 mM Sucrose) was used. Compounds of the invention were incubated with 1.2 nM [^3H]Pyrilamine for 180 min at 25° C. Non-specific binding was estimated in the presence of 1 μM pyrilamine. Receptor proteins were filtered and washed, the filters were then counted to determine [^3H]Pyrilamine specifically bound. Compounds were screened at 1 μM or lower, using 1% DMSO as vehicle. Biochemical assay results are presented as the percent inhibition of specific binding in Table 2.

[2] = biological target: T1, human recombinant adrenergic α1D receptor (Homo sapiens, UniProt P25100); experiment: Adrenergic α1D radioligand binding assay ([3H]Prozosin); conditions: 0.6 nM [3H]Prozosin, read-out: Percent Inhibition of ligand binding, Adrenergic (1 μM) α1D
T1 construct: expressed in transfected cells; host or cells: human embryonic kidney (HEK-293) cells
T1 sequence (P25100 1-572): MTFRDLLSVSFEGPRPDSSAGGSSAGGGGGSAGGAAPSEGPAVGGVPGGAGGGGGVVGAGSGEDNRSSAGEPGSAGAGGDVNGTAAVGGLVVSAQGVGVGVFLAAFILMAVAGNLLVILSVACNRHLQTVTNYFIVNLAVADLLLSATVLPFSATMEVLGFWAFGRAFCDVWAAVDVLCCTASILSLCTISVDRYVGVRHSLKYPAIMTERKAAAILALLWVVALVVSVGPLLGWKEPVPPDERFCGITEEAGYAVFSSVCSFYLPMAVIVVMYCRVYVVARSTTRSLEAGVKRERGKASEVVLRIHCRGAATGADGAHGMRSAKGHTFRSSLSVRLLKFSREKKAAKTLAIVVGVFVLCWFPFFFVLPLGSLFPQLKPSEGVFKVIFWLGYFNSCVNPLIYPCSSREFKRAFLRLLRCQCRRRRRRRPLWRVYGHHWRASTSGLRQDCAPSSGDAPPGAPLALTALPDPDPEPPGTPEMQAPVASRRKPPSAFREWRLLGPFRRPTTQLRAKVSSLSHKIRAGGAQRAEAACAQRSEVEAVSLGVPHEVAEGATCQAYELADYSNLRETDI
Description: Compounds of invention were incubated with 0.6 nM [^3H]Prozosin for 60 min at 25° C. Non-specific binding was estimated in the presence of 10 μM phentolamine. Receptor proteins were filtered and washed, the filters were then counted to determine [^3H]Prozosin specifically bound. Compounds were screened at 1 μM or lower, using 1% DMSO as vehicle. Biochemical assay results are presented as the percent inhibition of specific binding in Table 3.

[3] = biological target: human recombinant dopamine D2L receptor (Homo sapiens, UniProt P14416); experiment: Dopamine D2L radioligand binding assay ([3H]Spiperone); conditions: for inhibition at 1 µM: read-out: Percent Inhibition of ligand binding, Dopamine (1 μM) D2L
Description: Compounds of the invention were incubated with 0.16 nM [^3H]Spiperone for 120 min at 25° C. Non-specific binding was estimated in the presence of 10 μM Haloperidol. Receptor proteins were filtered and washed, the filters were then counted to determine [^3H]Spiperone specifically bound. Compounds were screened at 1 μM or lower, using 1% DMSO as vehicle. Biochemical assay results are presented as the percent inhibition of specific binding in Table 3.

[4] = biological target: T2, human recombinant serotonin (5-Hydroxytryptamine) 5-HT2A receptor (Homo sapiens, UniProt P28223); experiment: Serotonin 5-HT2A radioligand binding assay ([3H]Ketanserin); conditions: 0.5 nM [3H]Ketanserin, read-out: Percent Inhibition of ligand binding, Serotonin (1 μM) 5-HT2A
T2 construct: expressed in transfected cells; host or cells: Chinese hamster ovary (CHO-K1) cells
Description: Compounds of the invention were incubated with 0.5 nM [^3H]Ketanserin for 60 min at 25° C. Non-specific binding was estimated in the presence of 1 μM Mianserin. Receptor proteins were filtered and washed, the filters were then counted to determine [^3H]Ketanserin specifically bound. Compounds were screened at 1 μM or lower, using 1% DMSO as vehicle. Biochemical assay results are presented as the percent inhibition of specific binding in Table 4.

[5] = biological target: T3, human recombinant serotonin (5-Hydroxytryptamine) 5-HT6 receptor (Homo sapiens, UniProt P50406); experiment: Serotonin 5-HT6 radioligand binding assay ([3H]LSD); conditions: 1.5 nM [3H]LSD, read-out: Percent Inhibition of ligand binding, Serotonin (1 μM) 5-HT6
T3 construct: expressed in transfected cells; host or cells: human HeLa cells
Description: (§1) Compounds of the invention were incubated with 1.5 nM [3H]Lysergic acid diethylamide (LSD) for 120 min at 37° C. […] Receptor proteins were filtered and washed, the filters were then counted to determine [3H]LSD specifically bound. Compounds were screened at 1 μM or lower, using 1% DMSO as vehicle. Biochemical assay results are presented as the percent inhibition of specific binding in Table 4.

[6] = biological target: human recombinant serotonin (5-Hydroxytryptamine) 5-HT7 receptor (Homo sapiens, UniProt P34969); experiment: Serotonin 5-HT7 radioligand binding assay ([3H]LSD); conditions: 5.5 nM [3H]LSD, read-out: Percent Inhibition of ligand binding, Serotonin (1 μM) 5-HT7
Description: as §1, with “of” for “of the”, “5.5” for “1.5”, “[^3H] Lysergic” for “[3H]Lysergic”, “2 h” for “120 min”, “25°” for “37°”, “[^3H]LSD” for “[3H]LSD”

Sequence of human recombinant histamine H1 receptor (P35367 whole entry): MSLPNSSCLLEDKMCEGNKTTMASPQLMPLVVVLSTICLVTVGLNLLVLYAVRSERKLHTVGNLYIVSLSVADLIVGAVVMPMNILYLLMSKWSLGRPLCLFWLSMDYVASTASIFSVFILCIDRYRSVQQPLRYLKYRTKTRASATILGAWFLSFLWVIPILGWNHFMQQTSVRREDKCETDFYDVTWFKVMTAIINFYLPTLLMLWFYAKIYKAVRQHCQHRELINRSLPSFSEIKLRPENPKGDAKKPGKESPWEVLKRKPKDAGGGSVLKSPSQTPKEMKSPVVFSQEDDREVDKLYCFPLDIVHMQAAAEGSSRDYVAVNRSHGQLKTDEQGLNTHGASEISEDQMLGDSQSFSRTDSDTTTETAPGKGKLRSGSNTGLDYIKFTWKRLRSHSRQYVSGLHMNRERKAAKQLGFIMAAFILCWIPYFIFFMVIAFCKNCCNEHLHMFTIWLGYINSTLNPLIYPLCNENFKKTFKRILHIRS
T2 sequence (P28223 whole entry): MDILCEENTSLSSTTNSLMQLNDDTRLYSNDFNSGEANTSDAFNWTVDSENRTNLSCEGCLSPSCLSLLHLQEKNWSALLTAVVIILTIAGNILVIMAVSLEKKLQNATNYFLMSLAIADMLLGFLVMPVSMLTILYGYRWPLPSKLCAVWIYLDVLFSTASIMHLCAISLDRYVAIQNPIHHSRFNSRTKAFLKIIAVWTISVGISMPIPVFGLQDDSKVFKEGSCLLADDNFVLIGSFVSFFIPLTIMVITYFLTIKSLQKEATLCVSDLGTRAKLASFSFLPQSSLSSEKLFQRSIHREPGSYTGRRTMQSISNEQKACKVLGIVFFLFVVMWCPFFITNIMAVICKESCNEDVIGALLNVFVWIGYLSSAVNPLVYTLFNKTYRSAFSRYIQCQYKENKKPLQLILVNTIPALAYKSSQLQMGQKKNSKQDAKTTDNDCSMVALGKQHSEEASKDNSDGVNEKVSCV
Sequence of human recombinant serotonin (5-Hydroxytryptamine) 5-HT7 receptor (P34969 whole entry): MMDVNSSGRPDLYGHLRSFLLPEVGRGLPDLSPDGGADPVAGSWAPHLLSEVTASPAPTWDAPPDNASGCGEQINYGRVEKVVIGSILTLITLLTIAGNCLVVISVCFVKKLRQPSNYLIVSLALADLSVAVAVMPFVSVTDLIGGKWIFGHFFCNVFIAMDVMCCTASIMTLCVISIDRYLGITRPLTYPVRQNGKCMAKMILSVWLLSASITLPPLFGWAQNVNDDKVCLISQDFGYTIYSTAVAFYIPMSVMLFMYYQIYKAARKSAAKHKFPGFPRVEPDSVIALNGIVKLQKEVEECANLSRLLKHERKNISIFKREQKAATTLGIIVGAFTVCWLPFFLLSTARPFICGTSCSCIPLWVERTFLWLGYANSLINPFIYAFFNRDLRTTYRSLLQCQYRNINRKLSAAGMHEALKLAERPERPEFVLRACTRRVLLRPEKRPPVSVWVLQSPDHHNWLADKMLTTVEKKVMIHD
T3 sequence (P50406 whole entry): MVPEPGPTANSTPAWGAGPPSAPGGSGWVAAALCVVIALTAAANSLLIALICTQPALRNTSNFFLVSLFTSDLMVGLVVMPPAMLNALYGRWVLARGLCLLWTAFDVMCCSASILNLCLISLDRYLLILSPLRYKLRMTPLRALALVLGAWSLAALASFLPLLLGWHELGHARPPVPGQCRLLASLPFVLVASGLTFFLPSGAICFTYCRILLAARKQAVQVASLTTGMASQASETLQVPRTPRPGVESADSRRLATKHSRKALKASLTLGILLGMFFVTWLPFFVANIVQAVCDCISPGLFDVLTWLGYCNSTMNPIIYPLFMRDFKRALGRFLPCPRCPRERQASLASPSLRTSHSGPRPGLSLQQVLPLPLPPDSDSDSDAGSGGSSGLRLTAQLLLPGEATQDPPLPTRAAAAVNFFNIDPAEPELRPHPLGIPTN
Sequence of human recombinant dopamine D2L receptor (P14416 whole entry): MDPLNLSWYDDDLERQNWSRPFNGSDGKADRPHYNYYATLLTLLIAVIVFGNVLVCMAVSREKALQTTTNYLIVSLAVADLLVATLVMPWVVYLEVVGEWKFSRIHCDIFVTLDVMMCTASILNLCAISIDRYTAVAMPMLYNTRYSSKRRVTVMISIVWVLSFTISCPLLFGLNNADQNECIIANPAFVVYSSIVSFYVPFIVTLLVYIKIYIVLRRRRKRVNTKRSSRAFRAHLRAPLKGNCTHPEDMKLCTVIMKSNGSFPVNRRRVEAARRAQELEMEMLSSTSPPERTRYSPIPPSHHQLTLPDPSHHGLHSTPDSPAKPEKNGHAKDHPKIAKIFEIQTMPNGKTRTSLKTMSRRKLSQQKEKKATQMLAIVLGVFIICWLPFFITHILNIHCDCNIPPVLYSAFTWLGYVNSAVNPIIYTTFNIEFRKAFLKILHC

With `Cc1ccc2c(c1)c1c(n2CC(CC(=O)O)c2ccc(F)cc2)CCN(C)C1` (centres unmarked) [Compound 7, 4-(2,8-dimethyl-3,4-dihydro-1H-pyrido[4,3-b]indol-5(2H)-yl)-3-(4-fluorophenyl)butanoic acid] the “Binding Data (% Inhibition) Histamine Binding H1” value [1] was −1%, the inhibition at 1 µM [2] was 21% and the inhibition at 1 µM [3] was -10%. For the same compound, the inhibition at 1 µM [4] was 9%, the inhibition at 1 µM [5] was -3% and the inhibition at 1 µM [6] was 5%.
For `CCOC(=O)CC(Cn1c2c(c3cc(C)ccc31)CN(C)CC2)c1ccc(F)cc1` (centres unmarked) [Compound 6, ethyl 4-(2,8-dimethyl-3,4-dihydro-1H-pyrido[4,3-b]indol-5(2H)-yl)-3-(4-fluorophenyl)butanoate], the inhibition at 1 µM [2] was 106%, the “Percent Inhibition of ligand binding, Dopamine (1 μM) D2L” value [3] was 31% and the inhibition at 1 µM [3] was 24%. It also gave an inhibition at 1 µM [4] of 95%, an inhibition at 1 µM [5] of 102% and an inhibition at 1 µM [6] of 93%.
`Cc1ccc2c(c1)c1c(n2CC2(c3ccc(F)cc3)OCCO2)CCN(C)C1` [Compound 3, 5-((2-(4-fluorophenyl)-1,3-dioxolan-2-yl)methyl)-2,8-dimethyl-2,3,4,5-tetrahydro-1H-pyrido[4,3-b]indole] was tested, and the “Binding Data (% Inhibition) Histamine Binding H1” value [1] was 86%, the inhibition at 1 µM [2] was 60% and the inhibition at 1 µM [3] was 45%. For the same compound, the inhibition at 1 µM [4] was 99%, the inhibition at 1 µM [5] was 103% and the inhibition at 1 µM [6] was 99%.
In the case of `CN1CCc2c(c3cc(Cl)ccc3n2CC2(c3ccc(F)cc3)OCCO2)C1` [Compound 4, 8-chloro-5-((2-(4-fluorophenyl)-1,3-dioxolan-2-yl)methyl)-2-methyl-2,3,4,5-tetrahydro-1H-pyrido[4,3-b]indole], the “Binding Data (% Inhibition) Histamine Binding H1” value [1] is reported as 87%, the inhibition at 1 µM [2] is reported as 35% and the inhibition at 1 µM [3] is reported as 58%. It also gave an inhibition at 1 µM [4] of 99%, an inhibition at 1 µM [5] of 104% and an inhibition at 1 µM [6] of 93%.
In the case of `CN1CCc2c(c3cc(Cl)ccc3n2CC2(c3ccc(Cl)cc3)OCCO2)C1` [Compound 5, 8-chloro-5-((2-(4-chlorophenyl)-1,3-dioxolan-2-yl)methyl)-2-methyl-2,3,4,5-tetrahydro-1H-pyrido[4,3-b]indole], the “Binding Data (% Inhibition) Histamine Binding H1” value [1] is reported as 90%, the inhibition at 1 µM [2] is reported as 16% and the inhibition at 1 µM [3] is reported as 53%. The inhibition at 1 µM [4] was 99%, the inhibition at 1 µM [5] was 85% and the inhibition at 1 µM [6] was 89%.
In the case of `CNC(=O)CC(Cn1c2c(c3cc(C)ccc31)CN(C)CC2)c1ccc(F)cc1` (centres unmarked) [Compound 8, 4-(2,8-dimethyl-3,4-dihydro-1H-pyrido[4,3-b]indol-5(2H)-yl)-3-(4-fluorophenyl)-N-methylbutanamide], the “Binding Data (% Inhibition) Histamine Binding H1” value [1] is reported as 6%, the inhibition at 1 µM [2] is reported as 87% and the inhibition at 1 µM [3] is reported as 14%. It also gave an inhibition at 1 µM [4] of 85%, an inhibition at 1 µM [5] of 63% and an inhibition at 1 µM [6] of 74%.
`Cc1ccc2c(c1)c1c(n2CC2(c3ccccc3)OCCO2)CCN(C)C1` [Compound 2, 2,8-dimethyl-5-((2-phenyl-1,3-dioxolan-2-yl)methyl)-2,3,4,5-tetrahydro-1H-pyrido[4,3-b]indole] was tested, and the “Binding Data (% Inhibition) Histamine Binding H1” value [1] was 71%, the inhibition at 1 µM [2] was 56% and the inhibition at 1 µM [3] was 51%. It also gave an inhibition at 1 µM [4] of 93% and an inhibition at 1 µM [5] of 102%.
